*1 amine or outer side, *2 acyl side, *3 side chain or, on linkers, in order; H or OH if unused. Where a SMILES comes first, the peptide text is derived from it. [ ]: non-standard residue; d: D form. ξ: configuration not given here. X2 = O=C([C@@H]1CCCNN1[*:1])[*:2]; ξN(OH)Ile(3ξ) = CCC(C)C(NO)C(=O)O; X1 = O=C([C@H]1CCCNN1[*:1])[*:2]; dNMeF = CN[C@H](Cc1ccccc1)C(=O)O; NMeF = CN[CH](Cc1ccccc1)C(=O)O; X3 = O=C(C1CCCNN1[*:1])[*:2]
Biological target: oxytocin receptor
Test: [³H]Oxytocin binding assay, crude membrane preparation of rat uterus
Details: concentration of test compound to inhibit [³H]oxytocin binding by 50%; rat uterus membranes; read-out: IC₅₀ [³H]OT (uterus)
Excerpt: Oxytocin receptors have been identified in mammalian uterine tissue through the use of in vitro radioligand binding assays. These receptor binding sites mediate the contractile response of the uterine myometrium to oxytocin. […] The assay uses a crude membrane preparation of rat uterus as the source of oxytocin receptors. […]

Compound	IC50 [nM]
CC[C@H](C)[C@@H]1NC(=O)[C@@H](Cc2ccccc2)NC(=O)[C@@H]2CCCN2C(=O)[C@@H](Cc2ccccc2)N(C)C(=O)[C@@H]2CCCNN2C(=O)[C@H]2CCCNN2C1=O [Example 9] (cyclo([X1][X2][dNMeF]P[dF]I))	170 ± 15
CCC(C)C1C(=O)N2NCCCC2C(=O)N2NCCCC2C(=O)N(C)C(Cc2ccccc2)C(=O)N2CCCC2C(=O)NC(Cc2ccccc2)C(=O)N1O (centres unmarked) [Formula I] (cyclo([ξN(OH)Ile(3ξ)][X3][X3][NMeF]PF); configuration not given here)	370 ± 70
